Consider two compounds from US6509351B1, “Phenyl- and pyridyl-tetrahydro-pyridines having TNF inhibiting activity” (Sanofi-Syntelabo, priority 1999, dated 2003).

Structures can show the parent of a compound that is named as a salt.

As a reminder, the melting point is the temperature, or range, at which the solid turns liquid. In turn, `CCc1cc2ccc(CCN3CC=C(c4cccc(C(F)(F)F)c4)CC3)cc2cn1` (as salt: hydrochloride) had a melting point of 230 °C.

In turn, `Cc1ccc2ccc(CCN3CC=C(c4cccc(C(F)(F)F)c4)CC3)cc2n1` (as salt: hydrochloride) showed a melting point of 221 °C.
